Assay type in all cases: physicochemical
Data set [1] is described as follows: octanol:water partition coefficient (preformulation study). The protocol: (§1) The physio-chemical properties of ON 01210.Na, as an exemplary efficacious radiation protectant drug, were determined in order to evaluate appropriate formulation approaches for development of a safe, reliable and effective parenteral formulation of this compound and other radioprotective α,β-unsaturated arylsulfones. Evaluation studies included microscopic studies, partition coefficient, pKa, pH solubility studies, pH stability studies under accelerated conditions, solid state characterization of the drug substance, and solid state stability of drug substance under accelerated conditions. […] This drug was reasonably stable in an aqueous environment at biological pH. Therefore, it was determined that ON 01210.Na could be formulated as a shelf stable parenteral formulation.

Data set [2] can be described thus: pH stability studies under accelerated conditions. The protocol:
as §1

Data set [3] in a line: accelerated solid-state stability study of the bulk drug substance. The protocol:
as §1

Experimental findings from patent US9060967B2, “Stable aqueous formulation of (E)-4-carboxystyryl-4-chlorobenzyl sulfone” (ONCONOVA THERAPEUTICS, INC, priority 2010, dated 2015) are described below.

Turning to `O=C([O-])c1ccc(/C=C/S(=O)(=O)Cc2ccc(Cl)cc2)cc1.[Na+]` [ON 01210.Na, (E)-4-Carboxystyryl-4-chlorobenzylsulfone, Sodium Salt], the “octanol:water partition coefficient” value in data set [1] is given as 1.28-2.87. In addition, in data set [2], the degradation rate order entry is recorded as “pseudo-first-order”. In addition, the “pH-stability profile, degradation” value in data set [2] (acidic conditions) is recorded as “rapid”. For the same compound, in data set [2] (neutral and biological pH), the pH-stability profile entry was “better stability”. Besides, the accelerated solid-state stability entry in data set [3] is “no evidence of degradation”.
